Reference: ChEMBL document CHEMBL6120956, “Discovery of a Potent, Orally Active, and Long-Lasting P2X7 Receptor Antagonist as a Preclinical Candidate for Delaying the Progression of Chronic Kidney Disease” (J Med Chem, 2024)
Activity calls are given as the source filed them. The rule behind the calls is not given here.

Columns and labels:
[1] = molecular target: T1, P2X purinoceptor 7 (Mus musculus) (UniProt Q9Z1M0); test: Antagonist activity against mouse P2X7 receptor expressed in ATP-stimulated HEK293 cells assessed as influx of PI at 1 uM by fluorescence dye uptake assay relative to control; assay type: cell-based; parameters: scale not given: the % may be the effect or the level left
T1 sequence (whole entry): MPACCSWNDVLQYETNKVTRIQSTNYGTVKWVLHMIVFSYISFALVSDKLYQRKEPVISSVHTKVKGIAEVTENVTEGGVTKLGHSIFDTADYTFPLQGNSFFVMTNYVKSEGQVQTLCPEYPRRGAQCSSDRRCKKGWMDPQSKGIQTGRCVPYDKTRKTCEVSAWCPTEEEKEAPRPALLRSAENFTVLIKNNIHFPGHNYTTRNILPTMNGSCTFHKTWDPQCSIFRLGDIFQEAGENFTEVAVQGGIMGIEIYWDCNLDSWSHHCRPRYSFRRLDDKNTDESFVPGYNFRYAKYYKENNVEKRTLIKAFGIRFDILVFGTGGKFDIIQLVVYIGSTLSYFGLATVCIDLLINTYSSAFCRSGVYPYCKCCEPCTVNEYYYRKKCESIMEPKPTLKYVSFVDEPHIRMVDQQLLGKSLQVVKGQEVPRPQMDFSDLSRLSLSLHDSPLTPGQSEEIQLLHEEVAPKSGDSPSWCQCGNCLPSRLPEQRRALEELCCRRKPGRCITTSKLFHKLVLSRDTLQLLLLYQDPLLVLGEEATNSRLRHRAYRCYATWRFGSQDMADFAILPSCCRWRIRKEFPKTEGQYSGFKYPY

[2] = molecular target: T1, P2X purinoceptor 7 (Mus musculus); test: Antagonist activity against mouse P2X7 receptor expressed in ATP-stimulated HEK293 cells assessed as influx of PI at 200 nM by fluorescence dye uptake assay relative to control; assay type: cell-based; parameters: scale not given: the % may be the effect or the level left
[3] = Half life in male BALB/c mouse at 10 mg/kg, po single administration measured upto 72 hrs by LC-MS/MS analysis; assay type: ADME, organism-based; conditions: in vivo
[4] = AUC (0 to t) in male BALB/c mouse at 10 mg/kg, po single administration measured upto 72 hrs by LC-MS/MS analysis; assay type: ADME, organism-based; conditions: in vivo
[5] = Tmax in male BALB/c mouse at 10 mg/kg, po single administration measured upto 72 hrs by LC-MS/MS analysis; assay type: ADME, organism-based; conditions: in vivo
[6] = Cmax in male BALB/c mouse at 10 mg/kg, po single administration measured upto 72 hrs by LC-MS/MS analysis; assay type: ADME, organism-based; conditions: in vivo
[7] = Clearance in male BALB/c mouse at 10 mg/kg, po single administration measured upto 72 hrs by LC-MS/MS analysis; assay type: ADME, organism-based; conditions: in vivo
[8] = Metabolic stability in human liver microsomes assessed as clearance; assay type: ADME, Microsome; conditions: read-out: CLH
[9] = Metabolic stability in mouse liver microsomes assessed as half life; assay type: ADME, Microsome
[10] = Metabolic stability in human liver microsomes assessed as half life; assay type: ADME, Microsome
[11] = Metabolic stability in mouse liver microsomes assessed as clearance; assay type: ADME, Microsome; conditions: read-out: CLH
P2X purinoceptor 7 = molecular target: T2, P2X purinoceptor 7 (Mus musculus, UniProt Q9Z1M0); test: Antagonist activity against mouse P2X7 receptor expressed in ATP-stimulated HEK293 cells assessed as influx of PI by fluorescence dye uptake assay relative to control; assay type: cell-based
T2 sequence (Q9Z1M0 whole entry): T1 sequence (whole entry)

| SMILES | Activity [1] | Activity [2] | other results |
| --- | --- | --- | --- |
| CS(=O)(=O)c1ccc(-c2ncc(C(=O)NCc3cn(-c4cc(-c5cncc(C(F)(F)F)c5)ccn4)nn3)s2)cc1 | 49.6% | 42.8% |  |
| CS(=O)(=O)c1ccc(-c2ncc(C(=O)NCc3cn(-c4cncc(Br)c4)nn3)s2)cc1 | 36.8% | 33.5% |  |
| CS(=O)(=O)c1ccc(-c2nc(C(=O)NCc3cn(-c4cc(Nc5cnn(C(F)F)c5)ccn4)nn3)cs2)cc1 | 11.4% | 28.7% |  |
| CS(=O)(=O)c1ccc(-c2nc(C(=O)NCc3cn(-c4cc(Br)ccn4)nn3)cs2)cc1 |  |  | half-life [3]: 1.91 h; AUC(0-t) at 72 h [4]: 6510 ng·h/mL; Tmax [5]: 1.17 h; Cmax [6]: 1300 ng/mL; CL/F [7]: 25.8 mL/min/kg |
| CS(=O)(=O)c1ccc(-c2ncc(C(=O)NCc3cn(-c4ccc(Cl)cn4)nn3)s2)cc1 | 28.1% | inactive |  |
| Clc1cccc(-n2nnnc2NCc2ccccc2Oc2ccccn2)c1Cl | 96.3% | 90.7% |  |
| CS(=O)(=O)c1ccc(-c2ncc(C(=O)NCc3cn(-c4ccnc(Br)c4)nn3)s2)cc1 | inactive | inactive |  |
| CS(=O)(=O)c1ccc(-c2ncc(C(=O)NCc3cn(-c4cc(N5CCC(F)(F)CC5)ccn4)nn3)s2)cc1 |  |  | CLint scaled [8]: 21.8 mL/min/kg; half-life [9]: 0.987 h; half-life [10]: 1.33 h; CLint scaled [11]: 92.1 mL/min/kg; IC50 (P2X purinoceptor 7): 61 nM |
| CS(=O)(=O)c1ccc(-c2ncc(C(=O)NCc3cn(-c4cc(-c5ccc(C(F)(F)F)s5)ccn4)nn3)s2)cc1 | 35.6% | 18.4% |  |
| COc1ccnc(-n2cc(CNC(=O)c3csc(-c4ccc(S(C)(=O)=O)cc4)n3)nn2)c1 | 20.2% | 6% |  |
| CS(=O)(=O)c1ccc(-c2nc(C(=O)NCc3cn(-c4cc(-c5cccc(C(F)(F)F)c5)ccn4)nn3)cs2)cc1 |  |  | IC50 (P2X purinoceptor 7): 449 nM |
| CS(=O)(=O)c1ccc(-c2nc(C(=O)NCc3cn(-c4cc(C(F)(F)F)ccn4)nn3)cs2)cc1 |  |  | CLint scaled [8]: < 12 mL/min/kg; half-life [3]: 4.08 h; AUC(0-t) at 72 h [4]: 49800 ng·h/mL; Tmax [5]: 1.83 h; half-life [9]: > 2 h; half-life [10]: > 2 h; CLint scaled [11]: < 12 mL/min/kg; Cmax [6]: 4530 ng/mL; CL/F [7]: 3.33 mL/min/kg; IC50 (P2X purinoceptor 7): 70.2 nM |
| CS(=O)(=O)c1ccc(-c2ncc(C(=O)NCc3cn(-c4cc(NC5CC(F)(F)C5)ccn4)nn3)s2)cc1 |  |  | CLint scaled [8]: < 12 mL/min/kg; half-life [9]: 0.67 h; half-life [10]: > 2 h; CLint scaled [11]: 142 mL/min/kg; IC50 (P2X purinoceptor 7): 138 nM |
| CS(=O)(=O)c1ccc(-c2ncc(C(=O)NCc3cn(-c4ccc(F)cn4)nn3)s2)cc1 | 25.7% | 12.4% |  |
| CS(=O)(=O)c1ccc(-c2nc(C(=O)NCc3cn(-c4ccc(Br)nc4)nn3)cs2)cc1 | 10% | inactive |  |
| CS(=O)(=O)c1ccc(-c2ncc(C(=O)NCc3cn(-c4ccncc4Br)nn3)s2)cc1 | 41% | 25.9% |  |
| CS(=O)(=O)c1ccc(-c2nc(C(=O)NCc3cn(-c4ccc(F)cn4)nn3)cs2)cc1 | 48.4% | 13.3% |  |
| CS(=O)(=O)c1ccc(-c2nc(C(=O)NCc3cn(-c4cc(NC5CC(F)(F)C5)ccn4)nn3)cs2)cc1 |  |  | CLint scaled [8]: 13.8 mL/min/kg; half-life [9]: 0.547 h; half-life [10]: > 2 h; CLint scaled [11]: 166 mL/min/kg; IC50 (P2X purinoceptor 7): 55.5 nM |
| CS(=O)(=O)c1ccc(-c2nc(C(=O)NCc3cn(-c4ccnc(Br)c4)nn3)cs2)cc1 | inactive | inactive |  |

| SMILES | Activity [1] | Activity [2] | other results |
| --- | --- | --- | --- |
| CS(=O)(=O)c1ccc(-c2nc(C(=O)NCc3cn(-c4cc(-c5ccc(C(F)(F)F)cc5)ccn4)nn3)cs2)cc1 | 37% | 27.1% |  |
| CS(=O)(=O)c1ccc(-c2nc(C(=O)NCc3cn(-c4cc(-c5cncc(C(F)(F)F)c5)ccn4)nn3)cs2)cc1 | 32.5% | 30.3% |  |
| CS(=O)(=O)c1ccc(-c2ncc(C(=O)NCc3cn(-c4cccc(Br)n4)nn3)s2)cc1 | 45% | 10.7% |  |
| CS(=O)(=O)c1ccc(-c2ncc(C(=O)NCc3cn(-c4cc(C(F)(F)F)ccn4)nn3)s2)cc1 |  |  | CLint scaled [8]: < 12 mL/min/kg; half-life [3]: 3.35 h; AUC(0-t) at 72 h [4]: 14100 ng·h/mL; Tmax [5]: 2 h; half-life [9]: > 2 h; half-life [10]: > 2 h; CLint scaled [11]: 22.8 mL/min/kg; Cmax [6]: 2230 ng/mL; CL/F [7]: 11.8 mL/min/kg; IC50 (P2X purinoceptor 7): 80.6 nM |
| Cc1ccnc(-n2cc(CNC(=O)c3csc(-c4ccc(S(C)(=O)=O)cc4)n3)nn2)c1 | 5.1% | inactive |  |
| COc1ccnc(-n2cc(CNC(=O)c3cnc(-c4ccc(S(C)(=O)=O)cc4)s3)nn2)c1 | 9.9% | inactive |  |
| CS(=O)(=O)c1ccc(-c2nc(C(=O)NCc3cn(-c4cc(-c5ccc(C(F)(F)F)s5)ccn4)nn3)cs2)cc1 | 28.7% | 24.9% |  |
| CS(=O)(=O)c1ccc(-c2nc(C(=O)NCc3cn(-c4cccc(Br)n4)nn3)cs2)cc1 | 50% | 15.6% |  |
| CS(=O)(=O)c1ccc(-c2nc(C(=O)NCc3cn(-c4ccncc4Br)nn3)cs2)cc1 | 39.5% | 28.6% |  |
| CS(=O)(=O)c1ccc(-c2ncc(C(=O)NCc3cn(-c4cc(-c5cccc(C(F)(F)F)c5)ccn4)nn3)s2)cc1 | 27.4% | 13.3% |  |
| CS(=O)(=O)c1ccc(-c2ncc(C(=O)NCc3cn(-c4cc(-c5ccc(C(F)(F)F)cc5)ccn4)nn3)s2)cc1 | inactive | inactive |  |
| CS(=O)(=O)c1ccc(-c2ncc(C(=O)NCc3cn(-c4ccc(Br)nc4)nn3)s2)cc1 | 42.8% | 35% |  |
| CS(=O)(=O)c1ccc(-c2nc(C(=O)NCc3cn(-c4ccc(Cl)cn4)nn3)cs2)cc1 | inactive | inactive |  |
| C[C@H](NC(=O)c1csc(-c2ccc(S(C)(=O)=O)cc2)n1)c1cn(-c2cc(C(F)(F)F)ccn2)nn1 |  |  | CLint scaled [8]: < 12 mL/min/kg; half-life [3]: 7.38 h; AUC(0-t) at 72 h [4]: 107000 ng·h/mL; Tmax [5]: 7.33 h; half-life [9]: > 2 h; half-life [10]: > 2 h; CLint scaled [11]: < 12 mL/min/kg; Cmax [6]: 3230 ng/mL; CL/F [7]: 1.5 mL/min/kg; IC50 (P2X purinoceptor 7): 98.6 nM |
| CS(=O)(=O)c1ccc(-c2nc(C(=O)NCc3cn(-c4cc(N5CCC(F)(F)CC5)ccn4)nn3)cs2)cc1 |  |  | CLint scaled [8]: 54.2 mL/min/kg; half-life [9]: 0.333 h; half-life [10]: 0.535 h; CLint scaled [11]: 273 mL/min/kg; IC50 (P2X purinoceptor 7): 103 nM |
| Cc1ccnc(-n2cc(CNC(=O)c3cnc(-c4ccc(S(C)(=O)=O)cc4)s3)nn2)c1 | 44.4% | 30.7% |  |
| CS(=O)(=O)c1ccc(-c2ncc(C(=O)NCc3cn(-c4cc(Nc5cnn(C(F)F)c5)ccn4)nn3)s2)cc1 | 32.5% | 26.6% |  |
| CS(=O)(=O)c1ccc(-c2nc(C(=O)NCc3cn(-c4cncc(Br)c4)nn3)cs2)cc1 | 23.9% | 17.7% |  |
